Test results from PubChem BioAssay AID1963833 (Molecular Pharmacology Branch, DTP, NCI, 2024).

System: 883617-216-R-J1-PDC complex spheroid viability
Assay: Anticancer human tumor 883617-216-R-J1-PDC patient-derived bladder carcinoma cell line growth inhibition [POLQ]
Details: for IC50: curve of first compound; for viability, T/C: stronger effect = lower value
Summary of the method: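 Complex spheroid viability model combining PDC tumour cells with endothelial (HUVEC) and MSC stromal cells. Novobiocin, ART-558 or RP6685 were tested singly and in combination with standard and investigational anticancer drugs. Each was titrated in half-log steps from near clinical Cmax, or from 10 microM where Cmax was unknown.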

[1] = second compound 0.0316 µM, first compound 0.0316 µM
[2] = second compound 0.0316 µM, first compound 0.1 µM
[3] = second compound 0.0316 µM, first compound 0.316 µM
[4] = second compound 0.0316 µM, first compound 1 µM
[5] = second compound 0.0316 µM, first compound 3.16 µM
[6] = second compound 0.0316 µM, first compound 10 µM
[7] = second compound 0.1 µM, first compound 0.0316 µM
[8] = second compound 0.1 µM, first compound 0.1 µM
[9] = second compound 0.1 µM, first compound 0.316 µM
[10] = second compound 0.1 µM, first compound 1 µM
[11] = second compound 0.1 µM, first compound 3.16 µM
[12] = second compound 0.1 µM, first compound 10 µM
[13] = second compound 0.316 µM, first compound 0.0316 µM
[14] = second compound 0.316 µM, first compound 0.1 µM
[15] = second compound 0.316 µM, first compound 0.316 µM
[16] = second compound 0.316 µM, first compound 1 µM
[17] = second compound 0.316 µM, first compound 3.16 µM
[18] = second compound 0.316 µM, first compound 10 µM
[19] = second compound 1 µM, first compound 0.0316 µM
[20] = second compound 1 µM, first compound 0.1 µM
[21] = second compound 1 µM, first compound 0.316 µM
[22] = second compound 1 µM, first compound 1 µM
[23] = second compound 1 µM, first compound 3.16 µM
[24] = second compound 1 µM, first compound 10 µM
[25] = second compound 3.16 µM, first compound 0.0316 µM
[26] = second compound 3.16 µM, first compound 0.1 µM
[27] = second compound 3.16 µM, first compound 0.316 µM
[28] = second compound 3.16 µM, first compound 1 µM
[29] = second compound 3.16 µM, first compound 3.16 µM
[30] = second compound 3.16 µM, first compound 10 µM
[31] = second compound 10 µM, first compound 0.0316 µM
[32] = second compound 10 µM, first compound 0.1 µM
[33] = second compound 10 µM, first compound 0.316 µM
[34] = second compound 10 µM, first compound 1 µM
[35] = second compound 10 µM, first compound 3.16 µM
[36] = second compound 10 µM, first compound 10 µM
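Note: spheroids exposed to compounds for seven days before readout.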
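Throughout, for viability, T/C: 100% = DMSO vehicle control viability.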

In the case of `CNCc1ccc(-c2[nH]c3cc(F)cc4c3c2CCNC4=O)cc1` + Nc1ccc(C#CCN(C(=O)Cc2ncc(C(F)(F)F)cc2C(F)(F)F)c2ccc(F)cc2)nn1, the IC50 (second compound 0.0316 µM) is reported as greater than 10 µM, the IC50 (second compound 0.1 µM) is reported as greater than 10 µM and the IC50 (second compound 0.316 µM) is reported as greater than 10 µM. It also gave an IC50 (second compound 1 µM) greater than 10 µM, an IC50 (second compound 3.16 µM) greater than 10 µM and an IC50 (second compound 10 µM) greater than 10 µM. It also gave a viability, T/C [1] of 93.8%, a viability, T/C [2] of 86.4% and a viability, T/C [3] of 83.8%. The viability, T/C [4] was 101%, the viability, T/C [5] was 110% and the viability, T/C [6] was 92.1%. For the same molecule, the viability, T/C [7] was 96.9%, the viability, T/C [8] was 79.8% and the viability, T/C [9] was 96.8%. The viability, T/C [10] was 107%, the viability, T/C [11] was 102% and the viability, T/C [12] was 95.2%. The viability, T/C [13] was 104%, the viability, T/C [14] was 81.3% and the viability, T/C [15] was 88.4%. For the same molecule, the viability, T/C [16] was 96.8%, the viability, T/C [17] was 104% and the viability, T/C [18] was 89.8%. For the same molecule, the viability, T/C [19] was 95.5%, the viability, T/C [20] was 105% and the viability, T/C [21] was 106%. It also gave a viability, T/C [22] of 113%, a viability, T/C [23] of 104% and a viability, T/C [24] of 76.1%. The viability, T/C [25] was 92.4%, the viability, T/C [26] was 102% and the viability, T/C [27] was 91.7%. The viability, T/C [28] was 103%, the viability, T/C [29] was 102% and the viability, T/C [30] was 98.1%. The viability, T/C [31] was 116%, the viability, T/C [32] was 107% and the viability, T/C [33] was 120%. It also gave a viability, T/C [34] of 101%, a viability, T/C [35] of 127% and a viability, T/C [36] of 102%.
With `COc1cccc(OCCCN)c1-c1cc(Nc2cnc(C#N)cn2)n[nH]1` + Nc1ccc(C#CCN(C(=O)Cc2ncc(C(F)(F)F)cc2C(F)(F)F)c2ccc(F)cc2)nn1 the IC50 (second compound 0.0316 µM) was 0.0774 µM, the IC50 (second compound 0.1 µM) was 0.0472 µM and the IC50 (second compound 0.316 µM) was 0.0871 µM. The IC50 (second compound 1 µM) was 0.12 µM, the IC50 (second compound 3.16 µM) was 0.0733 µM and the IC50 (second compound 10 µM) was 0.0856 µM. The viability, T/C (second compound 0.0316 µM, first compound 0.00316 µM) was 111%, the viability, T/C (second compound 0.0316 µM, first compound 0.01 µM) was 77% and the viability, T/C [1] was 67%. The viability, T/C [2] was 42.8%, the viability, T/C [3] was 37.7% and the viability, T/C [4] was 35.4%. It also gave a viability, T/C (second compound 0.1 µM, first compound 0.00316 µM) of 96.9%, a viability, T/C (second compound 0.1 µM, first compound 0.01 µM) of 95.6% and a viability, T/C [7] of 55.2%. The viability, T/C [8] was 43.6%, the viability, T/C [9] was 41.4% and the viability, T/C [10] was 33.7%. The viability, T/C (second compound 0.316 µM, first compound 0.00316 µM) was 99.3%, the viability, T/C (second compound 0.316 µM, first compound 0.01 µM) was 91.3% and the viability, T/C [13] was 57.4%. The viability, T/C [14] was 52.6%, the viability, T/C [15] was 40.8% and the viability, T/C [16] was 31.9%. It also gave a viability, T/C (second compound 1 µM, first compound 0.00316 µM) of 95.3%, a viability, T/C (second compound 1 µM, first compound 0.01 µM) of 78.2% and a viability, T/C [19] of 64.8%. The viability, T/C [20] was 53%, the viability, T/C [21] was 40% and the viability, T/C [22] was 28.6%. For the same molecule, the viability, T/C (second compound 3.16 µM, first compound 0.00316 µM) was 85.9%, the viability, T/C (second compound 3.16 µM, first compound 0.01 µM) was 89.8% and the viability, T/C [25] was 67.1%. It also gave a viability, T/C [26] of 39.5%, a viability, T/C [27] of 47.1% and a viability, T/C [28] of 44.5%. For the same molecule, the viability, T/C (second compound 10 µM, first compound 0.00316 µM) was 109%, the viability, T/C (second compound 10 µM, first compound 0.01 µM) was 89.8% and the viability, T/C [31] was 63.6%. For the same molecule, the viability, T/C [32] was 48.8%, the viability, T/C [33] was 39.5% and the viability, T/C [34] was 36.2%.
`O=C(c1cc(Cc2n[nH]c(=O)c3ccccc23)ccc1F)N1CCN(C(=O)C2CC2)CC1` + Nc1ccc(C#CCN(C(=O)Cc2ncc(C(F)(F)F)cc2C(F)(F)F)c2ccc(F)cc2)nn1 was tested, and the IC50 (second compound 0.0316 µM) was greater than 10 µM, the IC50 (second compound 0.1 µM) was greater than 10 µM and the IC50 (second compound 0.316 µM) was greater than 10 µM. For the same molecule, the IC50 (second compound 1 µM) was greater than 10 µM, the IC50 (second compound 3.16 µM) was greater than 10 µM and the IC50 (second compound 10 µM) was greater than 10 µM. The viability, T/C [1] was 90%, the viability, T/C [2] was 105% and the viability, T/C [3] was 83.3%. The viability, T/C [4] was 89.8%, the viability, T/C [5] was 90.3% and the viability, T/C [6] was 67.8%. It also gave a viability, T/C [7] of 92.8%, a viability, T/C [8] of 109% and a viability, T/C [9] of 92.7%. It also gave a viability, T/C [10] of 97.5%, a viability, T/C [11] of 95.4% and a viability, T/C [12] of 86.4%. The viability, T/C [13] was 97.9%, the viability, T/C [14] was 109% and the viability, T/C [15] was 100%. The viability, T/C [16] was 89.1%, the viability, T/C [17] was 75.7% and the viability, T/C [18] was 87.9%. For the same molecule, the viability, T/C [19] was 100%, the viability, T/C [20] was 86.8% and the viability, T/C [21] was 99.3%. It also gave a viability, T/C [22] of 104%, a viability, T/C [23] of 84.8% and a viability, T/C [24] of 95.3%. For the same molecule, the viability, T/C [25] was 90%, the viability, T/C [26] was 99.5% and the viability, T/C [27] was 92.2%. The viability, T/C [28] was 91.3%, the viability, T/C [29] was 81.2% and the viability, T/C [30] was 73%. For the same molecule, the viability, T/C [31] was 97%, the viability, T/C [32] was 103% and the viability, T/C [33] was 100%. The viability, T/C [34] was 93.1%, the viability, T/C [35] was 94.2% and the viability, T/C [36] was 73%.
